Results: PMC10765375, “Crystal structure and enzymology of Solanum tuberosum inositol tris/tetrakisphosphate kinase 1 (StITPK1)” (Biochemistry, 2023)
pKi: −log10 of the molar value. Entries after “also recorded” stand apart in the source; their conditions may differ. Read-outs that look alike come from different tables or passages of the source.

Columns and labels:
StITPK1 [1] = target: T1, StITPK1 (Solanum tuberosum, UniProt A4H2J0); experiment: Fluorescence polarization displacement of 2-FAM-InsP5; type: binding; conditions: Cheng-Prusoff with Kd 48 nM
Excerpt: To determine the relative strengths of binding of different inositol phosphate and inositol pyrophosphate substrates of StITPK1 we undertook fluorescence polarization experiments with 2-FAM-InsP5 [35]. […] A saturation curve for binding of 2-FAM-InsP5 to StITPK1 is shown (Figure S5) and displacement curves are shown for diverse inositol phosphates (Figure 2). The structures of these compounds are shown (Figure S1). […]
Fluorescence polarization (anisotropy)
A curve for binding of 2-FAM-InsP5 to StITPK1 was obtained by incubation of 2 nM 2-FAM-InsP5 [1] with increasing concentration (1-500 nM) of StITPK1 in 20 mM HEPES pH 6.5, 1 mM EDTA, 100 mM NaCl, after. Thereafter, displacement assays were performed by titration of inositol phosphate, inositol pyrophosphate […]
or analog thereof with 2 nM 2-FAM-InsP5 and 50 nM StITPK1. Compounds were tested for displacement in a range of 1 nM - 50 µM. Fluorescence polarization was measured in 384-well, black, low-binding plates, Corning product 3573. Binding and displacement curves (anisotropy) were log transformed and fitted to a 4-parameter logistic (in GraphPad Prism v.6 software (GraphPad Software Inc., San Diego, USA). Fitting of the […]
Substituting the value of Kd for KM in the Cheng-Prusoff equation for competitive inhibition: […]
with concentration of 2-FAM-InsP5 [S], yielded Ki with confidence intervals adjusted by linear approximation.
M.; Jamieson, A. G.; Potter, B. V.; Schwabe, J. W., Insights into the activation mechanism of class I HDAC complexes by inositol phosphates. Nat Commun 2016, 7, 11262. […]

StITPK1 [2] = target: T1, StITPK1; experiment: Kinase assay with ATP, HPLC of products; type: biochemical; conditions: for Product formation (12h) / Product formation (separate 12h experiment) / Product formation (3h): 1 mM substrate; for Product formation (12h) / Product formation (3h): 25°C; for kinase substrate status: with ATP, HPLC
Experimental: (§1) Kinase assays were performed with ATP-regeneration as described for ATP-grasp kinases ITPK1/2 and VIH1/2 [2-3, 27-29], here in 20 mM HEPES pH 6.5, 1 mM MgCl2, 0.5 mM ATP and 1 mM inositol phosphate substrate. The low rate constants for phospho-kinase activity and the low sensitivity of NMR, PAGE and HPLC […]
[2-3, 27-29], here with or without 4 µM protein for 3h or 12h at 25 °C. Competition/inhibition assays were […]
InsP6, and competitor, typically 0.5 mM, incubated with or without 3 µM protein for 2 h at 25 °C . […]
(§2) 0.5 mM inositol pyrophosphate substrate incubated with 4 µM protein at 25 °C . HPLC analysis and detection of inositol phosphates by complexation with ferric ion was performed as described. Peak area data were analysed with the chromatography Jasco ChromNav v.2 software and x,y data were imported into GraphPad Prism v.6 software (GraphPad Software Inc., San Diego, USA) for plotting of chromatograms without additional processing of the data. […]

StITPK1 [3] = target: T1, StITPK1; experiment: Competition/inhibition of Ins(1,2,3,4,5)P5 5-phospho-kinase activity, HPLC; type: biochemical; conditions: for % inhibition at 3h, Ins(1,2,3,4,5)P5 substrate: 0.5 mM competing substrate/inhibitor, 1 mM Ins(1,2,3,4,5)P5, 3h experiment; for inhibition of Ins(1,2,3,4,5)P5 phospho-kinase activity: 0.5 mM competitor
StITPK1 [4] = target: T1, StITPK1; experiment: Reverse (phosphotransfer to ADP) assay, HPLC; type: biochemical; conditions: 0.5 mM ADP, 12h
Experimental: The low rate constants for phospho-kinase activity and the low sensitivity of NMR, PAGE and HPLC […]
(§3) [2-3, 27-29], here with or without 4 µM protein for 3h or 12h at 25 °C. […]
as §2, with “(phosphotransfer to ADP) assays were performed with 20 mM HEPES pH 6.5, 1 mM MgCl2, 0.5mM ADP and 0.5” for “0.5”

AtITPK1 = target: T2, AtITPK1; experiment: Kinase assay with ATP, HPLC of products; type: biochemical, Arabidopsis thaliana; conditions: with ATP, HPLC
T2 construct: made in house
Experimental: as §1, §3, §2

[5] = Ki for displacement of 2-FAM-InsP5, 2 nM 2-FAM-InsP5, 50 nM StITPK1, pH 6.5
[6] = 2 nM 2-FAM-InsP5, 50 nM StITPK1, pH 6.5, read-out: Ki for displacement of 2-FAM-InsP5

T1 sequence (A4H2J0 entry or part of it): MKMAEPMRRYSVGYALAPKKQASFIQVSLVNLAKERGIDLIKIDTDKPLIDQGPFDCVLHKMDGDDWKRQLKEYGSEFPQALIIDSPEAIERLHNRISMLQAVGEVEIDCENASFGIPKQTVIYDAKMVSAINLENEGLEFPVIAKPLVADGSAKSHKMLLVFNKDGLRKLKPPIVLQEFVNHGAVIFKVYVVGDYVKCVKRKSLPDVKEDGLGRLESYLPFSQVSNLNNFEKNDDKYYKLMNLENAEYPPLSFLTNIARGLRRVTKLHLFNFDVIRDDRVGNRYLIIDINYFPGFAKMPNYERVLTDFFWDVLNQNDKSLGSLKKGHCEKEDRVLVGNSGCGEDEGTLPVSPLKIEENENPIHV

Structure (SMILES) | pKi (StITPK1 [1]; [5]) | Product formation (12h) (StITPK1 [2]) [μM/μM protein] | Product formation (separate 12h experiment) (StITPK1 [2]) [μM/μM protein] | kinase substrate status (StITPK1 [2]) | % inhibition at 3h, Ins(1,2,3,4,5)P5 substrate (StITPK1 [3]) [%] | Product formation (3h) (StITPK1 [2]) [μM/μM protein] | pKi (StITPK1 [1]; [6]) | substrate for phosphotransfer to ADP (StITPK1 [4]) | kinase substrate status (AtITPK1) | inhibition of Ins(1,2,3,4,5)P5 phospho-kinase activity (StITPK1 [3])
O=P(O)(O)OC1C(OP(=O)(O)O)C(OP(=O)(O)O)C(OP(=O)(O)O)C(OP(=O)(O)O)C1OP(=O)(O)O (stereo not drawn) [neo-InsP6, neo-inositol 1,2,3,4,5,6-hexakisphosphate] | 6.95 | 0 | 0 | failure of StITPK1 to phosphorylate |  |  |  |  |  | 
O=P(O)(O)OC1C(OP(=O)(O)O)C(OP(=O)(O)O)C(OP(=O)(O)O)C(OP(=O)(O)O)C1OP(=O)(O)O (stereo not drawn) [scyllo-InsP6, scyllo-inositol 1,2,3,4,5,6-hexakisphosphate] | 6.37 | 0 | 0 | failure of StITPK1 to phosphorylate |  |  |  |  |  | 
O=C(CP(=O)(O)O)NC1C(OP(=O)(O)O)C(OP(=O)(O)O)C(OP(=O)(O)O)C(OP(=O)(O)O)C1OP(=O)(O)O (stereo not drawn) [5-PCH2AM-InsP5, 5-deoxy-5-(phosphonoacetamido)-myo-inositol 1,2,3,4,6-pentakisphosphate] | 6.05 | 25 |  | very weak substrates | 43 | 0 |  |  |  | 
O=P(O)(O)O[C@@H]1[C@@H](OP(=O)(O)O)[C@H](OP(=O)(O)O)[C@@H](O)[C@H](OP(=O)(O)O)[C@@H]1OP(=O)(O)O [Ins(1,2,3,4,5)P5, 1D-myo-inositol 1,2,3,4,5-pentakisphosphate] |  |  | 257 | showing phospho-kinase activity |  |  | 6.37 |  |  | 
O=C(NC1C(OP(=O)(O)O)C(OP(=O)(O)O)C(OP(=O)(O)O)C(OP(=O)(O)O)C1OP(=O)(O)O)C(F)(F)P(=O)(O)O (stereo not drawn) [5-PCF2AM-InsP5, 5-deoxy-5-(phosphonodifluoroacetamido)-myo-inositol 1,2,3,4,6-pentakisphosphate] | 6.97 | 0 |  | not a substrate | 67 | 0 |  |  |  | 
O=P(O)(O)O[C@@H]1[C@@H](OP(=O)(O)O)[C@H](OP(=O)(O)OP(=O)(O)O)[C@@H](OP(=O)(O)O)[C@H](OP(=O)(O)OP(=O)(O)O)[C@@H]1OP(=O)(O)O [1,5-[PP]2-InsP4, 1D-1,5-bis-diphospho-myo-inositol 2,3,4,6-tetrakisphosphate] |  |  |  |  |  |  |  | both enantiomers are substrates |  | 
O=P(O)(O)CP(=O)(O)OC1C(OP(=O)(O)O)C(OP(=O)(O)O)C(OP(=O)(O)O)C(OP(=O)(O)O)C1OP(=O)(O)O (stereo not drawn) [3-PCP-InsP5, myo-inositol 1,2,4,5,6-penta-phosphate-3-methylenediphosphonate] |  | 232 |  | better substrates | 78 | 41 |  |  | better substrates | potent inhibitors
O=P(O)(O)OC1C(OP(=O)(O)O)C(OP(=O)(O)O)C(OP(=O)(O)O)C(OP(=O)(O)O)C1OP(=O)(O)O [D-chiro-InsP6, 1-D-chiro-inositol 1,2,3,4,5,6-hexakisphosphate] | 6.81 | 0 | 0 | not a substrate |  |  |  |  |  | 
O=P(O)(O)OC1[C@@H](OP(=O)(O)O)[C@H](OP(=O)(O)O)C(OP(=O)(O)OP(=O)(O)O)[C@@H](OP(=O)(O)O)[C@H]1OP(=O)(O)O (stereo partly drawn) [3-PP-InsP5, 1D-3-diphospho-myo-inositol 1,2,4,5,6-pentakisphosphate] |  | 193 |  | phospho-kinase substrates; also recorded: a stronger substrate than 1-PP-InsP5 | 71 | 35 |  |  | a stronger substrate than 1-PP-InsP5 | 
O=P(O)(O)CP(=O)(O)OC1C(OP(=O)(O)O)C(OP(=O)(O)O)C(OP(=O)(O)O)C(OP(=O)(O)CP(=O)(O)O)C1OP(=O)(O)O (stereo not drawn) [1,5-[PCP]2-InsP4] |  |  |  |  |  |  |  | neither |  | 
O=C(O)CP(=O)(O)O[C@H]1[C@H](OP(=O)(O)O)[C@@H](OP(=O)(O)O)[C@@H](OP(=O)(O)O)[C@@H](OP(=O)(O)O)[C@@H]1OP(=O)(O)O [5-PA-InsP5, myo-inositol 1,2,3,4,6-penta-phosphate-5-phosphonoacetate] |  | 236 |  | strongest phospho-kinase substrate after myo-InsP6 | 44 | 50 |  |  | weak substrate | 
O=P(O)(O)O[C@@H]1[C@H](OP(=O)(O)O)[C@H](OP(=O)(O)O)[C@@H](O)[C@H](OP(=O)(O)O)[C@H]1OP(=O)(O)O [Ins(1,2,3,5,6)P5, 1D-myo-inositol 1,2,3,5,6-pentakisphosphate] |  |  | 0 | lacking activity |  |  | 6.54 |  |  | 
O=P(O)(O)O[C@@H]1[C@@H](OP(=O)(O)O)[C@@H](OP(=O)(O)O)[C@@H](OP(=O)(O)OP(=O)(O)O)[C@H](OP(=O)(O)O)[C@H]1OP(=O)(O)O [1-PP-InsP5, 1D-1-diphospho-myo-inositol 2,3,4,5,6-pentakisphosphate] |  | 75 |  | the weaker substrate | 76 | 9 |  |  |  | 
O=P(O)(O)CP(=O)(O)O[C@@H]1[C@H](OP(=O)(O)O)[C@H](OP(=O)(O)O)[C@@H](OP(=O)(O)O)[C@H](OP(=O)(O)O)[C@H]1OP(=O)(O)O [1-PCP-InsP5, myo-inositol 2,3,4,5,6-penta-phosphate-1-methylenediphosphonate] |  | 145 |  | better substrates | 61 | 22 |  |  | better substrates | potent inhibitors
O=P(O)(O)O[C@@H]1[C@H](OP(=O)(O)O)[C@H](OP(=O)(O)OP(=O)(O)O)[C@@H](OP(=O)(O)O)[C@H](OP(=O)(O)OP(=O)(O)O)[C@H]1OP(=O)(O)O [3,5-[PP]2-InsP4, 1D-3,5-bis-diphospho-myo-inositol 1,2,4,6-tetrakisphosphate] |  |  |  |  |  |  |  | both enantiomers are substrates |  | 
O=P(O)(O)O[C@@H]1[C@@H](OP(=O)(O)O)[C@H](OP(=O)(O)O)[C@@H](O)[C@@H](O)[C@H]1OP(=O)(O)O [Ins(1,4,5,6)P4, 1D-myo-inositol 1,4,5,6-tetrakisphosphate] |  |  | 41 |  |  |  | 5.59 |  |  | 
O=P(O)(O)CP(=O)(O)OC1C(OP(=O)(O)O)C(OP(=O)(O)O)C(OP(=O)(O)O)C(OP(=O)(O)O)C1OP(=O)(O)O (stereo not drawn) [5-PCP-InsP5, myo-inositol 1,2,3,4,6-penta-phosphate-5-methylenediphosphonate] |  | 0 |  |  | 60 | 0 | 7.00 |  |  | 
